According to US7414023B2, “Peptide ligands for prostate specific antigen” (Licentia Ltd., priority 2000, dated 2008):
Bridge positions count the residues as written; N and C are the ends. Peptide text beside a SMILES is read from it.

Tests used:
Parameters in all cases: PSA was purified from human seminal fluid as described previously (3); from tissue; host or cells: human seminal fluid
PSA [1] = target: T1, PSA (Homo sapiens, UniProt P07288); assay: Enzyme activity of PSA with chromogenic substrate S-2586; assay type: biochemical; conditions: GST-peptides, S-2586; for minimum peptide concentration affecting the activity: PSA enzyme activity
T1 sequence (P07288 25-261): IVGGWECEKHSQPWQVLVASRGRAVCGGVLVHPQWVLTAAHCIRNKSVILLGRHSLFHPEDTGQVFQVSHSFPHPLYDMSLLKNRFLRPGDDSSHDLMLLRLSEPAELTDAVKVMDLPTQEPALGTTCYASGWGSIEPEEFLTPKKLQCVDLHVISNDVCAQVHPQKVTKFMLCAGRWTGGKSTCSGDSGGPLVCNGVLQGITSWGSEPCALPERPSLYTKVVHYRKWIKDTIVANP
Description: The enzyme activity of PSA was studied in the presence of peptides alone or together with Zn^2+ by using the chymotrypsin substrate S-2586 (MeO-Suc-Arg-Pro-Tyr-pNA) (Chromogenix, Mölndal, Sweden). […] PSA (333 nM) was incubated with a 1-100-fold molar excess of GST-peptide or 100-fold excess of synthetic peptide in TBS buffer, pH 7.8 containing 0.5 g/L BSA for 1 h at 22° C. The effect of Zn^2+ on the enzyme activity of PSA was studied by including 1-200 μM of ZnCl2 in the reaction buffer. The combined effect of peptides and Zn2+ on the enzyme activity of PSA was studied by incubating PSA (333 nM) with peptide (333 nM) in the buffer containing 1-200 μM Zn^2+ for 1 h. After addition of substrate to a final concentration 0.2 mM, the absorbance was monitored at 5-min intervals for 2 h at 405 nm on a Labsystems Multiskan MCC/340 photometer (Labsystems, Helsinki, Finland). As a control, the effect of wild type GST on the enzyme activity of PSA was tested.
In the experiments, PSA (0.33 μM) was incubated with increasing concentrations of GST-C-4 (0-100-fold molar excess) for 1 h, after which the chromogenic substrate S-2586 was added and enzyme activity was monitored by measuring the absorbance at 405 nm. Data represent mean values from duplicate wells ±SE.
PSA (0.33 μM) was incubated with chemically synthesized peptides (100-fold molar excess) for 1 h, after which the chromogenic substrate S-2586 was added and enzyme activity was monitored by measuring the absorbance at 405 nm.
Because zinc is known to inhibit the enzyme activity of PSA, we further characterized the effect of GST-peptides on the enzyme activity of PSA by assessing the combined effect of peptides and Zn^2+. […] The effect of GST-C-4 and Zn^2+ on enzyme activity was determined by incubating PSA (0.33 μM) with the same molar concentration of GST-C-4 and various concentrations of Zn^2+. The reaction was monitored by measuring absorbance at 405 nm after addition of the chromogenic substrate S-2586. […] Data represent mean values from duplicate wells ±SE.
(§1) Data represent mean values from duplicate wells ±SE.
As control the enzyme activity of PSA alone was measured.
as §1
20 μg of the peptide was iodinated by the Iodogen method. After iodination the peptide was purified by using C18 Sep-Pak column.

PSA [2] = target: T1, PSA; assay: GST-peptide IFMA: binding of GST-peptides to PSA captured by MAb 5E4; conditions: for binding to PSA in GST-peptide IFMA (in words): GST fusion proteins; for Maximal binding (CPS): GST-peptide fusion proteins, Eu-labelled anti GST antibody as tracer
Description: After washing the binding of GST-peptide was quantified by IFMA using an Eu-labelled anti GST antibody as tracer. Data represent mean values from duplicate wells ±standard error (SE).
The solid phase antibodies used in the IFMAs were coated onto microtitration wells at a concentration of 5 μg/mL in TBS for 16 h at 22° C., the solution was discarded and the wells were saturated with 10 g/L bovine serum albumin in TBS for 3 h at 22° C. The antibodies used as tracers were labeled with a Eu^3+ chelate as described previously (26). The assay buffer was 50 mM Tris-HCL, pH 7.7, 150 mM NaCl, 33.3 μM bovine serum albumin, 1 μM bovine globulin.
The binding of individual phage clones to PSA was tested by IFMA (phage IFMA). In the phage IFMA, about 30 ng of PSA was added to MAb 5E4 coated wells for 1 h. After washing (Buffer: 150 mM NaCl, 7.7 mM NaN3, 0.2 g/L Tween 20), 15 μL of phage and 200 μl assay buffer was added. After incubation for 1 h, the wells were washed and filled with 200 μl of assay buffer containing 50 ng europium-labeled anti phage monoclonal antibody recognizing the M13 coat protein of the phage. After incubation for 60 min, the wells were washed 4 times, and enhancement solution (EG&G-Wallac) was added. The fluorescence was quantified with a 1234 DELFIA Research fluorometer (EG&G-Wallac). Binding of GST-peptide to PSA was determined by an IFMA (GST-peptide IFMA) similar to the one for phage peptides except that Eu^3+-labeled antibody to GST was used. Various amounts of GST-peptide or wild type GST were added to wells containing captured PSA in 200 μL of assay buffer and incubated for 1 h. To test the effect of Zn^2+ on the binding between GST-peptide and PSA, various concentrations of Zn^2+ (1-200 μM) were added to the buffer in the incubation step of GST-peptide and PSA. In competition experiments, GST-peptide (167 nM) or wild type GST were first incubated with increasing amounts of PSA (0-333 nM) in 0.5% BSA-TBS buffer for 60 min, then added to wells containing PSA captured by MAb 5E4. After incubation for 1 h the wells were washed and Eu^3+-labeled anti GST antibody was added. After further incubation and washing the bound fluorescence was measured as described above. When assessing the binding of the GST-peptides to other proteinases, including chymotrypsin, cathepsin G, trypsin, and kallikrein, these proteinases were captured by their specific antibodies coated to the microtitration well. Recombinant hK2 was captured by MAb 5E4, which is known to bind hK2 (24). For assessing the binding of the GST-peptides with complexes of PSA, including PSA-ACT and PSA-α1-protease inhibitor (PSA-API) (28), the complexes were captured by antibodies against ACT and API, respectively. After capturing the various proteinases or PSA complexes, GST-peptide was added and binding was monitored as described above for the GST-peptide IFMA.

PSA [3] = target: T1, PSA; assay: PSA activity measurements with modified peptides, substrate S-2586 (Example 5); assay type: biochemical; conditions: ratio of OD 405 nm of PSA-peptide to PSA alone after 60 minutes; ratio > 1.1 interpreted as active
Description: PSA activity measurements: The effect of different peptides on the activity of PSA was studied by using chymotrypsin substrate S-2586 (MeO-Suc-Arg-Pro-Tyr-pNA) (Chromogenix, Mölndal, Sweden). 77 pmoles (2 μg) of PSA, substrate and 10 μmoles of different peptides were incubated in Tris-buffer (10 mM Tris and 150 mM NaCl at pH 7.8) with 0.2 mM concentration of the substrate at room temperature. PSA reaction without any peptide was used as basic level control. Reaction was measured after 60 minutes incubation at […] using Multiscan RC photometer (Labsystems, Finland). The effect of the peptides was calculated as a ratio from the OD value of PSA-peptide complex to PSA alone after 60 minutes incubation.

Row | minimum peptide concentration affecting the activity (PSA [1]) [nM] | binding to PSA in GST-peptide IFMA (in words) (PSA [2]) | Maximal binding (CPS) (PSA [2]) | PSA-peptide/PSA ratio (PSA [3]) | Compound | EC50 (PSA [1]; PSA 0.33 μM, read-out: 50% stimulation (μM): peptide concentration required for half maximal stimulation of the enzyme activity of PSA) [µM]
1 | 300 | less efficiently than C-4 | 428000 | 3.0 | CC(C)C[C@@H]1NC(=O)[C@H](Cc2ccc(O)cc2)NC(=O)[C@H](CC(=O)O)NC(=O)[C@H](Cc2ccc(O)cc2)NC(=O)[C@H](CC(N)=O)NC(=O)[C@H](Cc2c[nH]cn2)NC(=O)[C@H](C)NC(=O)[C@H](Cc2ccccc2)NC(=O)[C@H](C(C)C)NC(=O)[C@@H](N)CSSC[C@@H](C(=O)O)NC(=O)[C@H](C(C)C)NC1=O [Peptide B-2] (H-CVFAHNYDYLVC-OH; disulfide 1-12; N-terminus assumed) | 
2 | 300 | less efficiently than C-4 | 219000 | 2.3 | CVFTSDYAFC [Peptide A-1] | 2.2
